Data taken from patent US12479847B2 (DANA-FARBER CANCER INSTITUTE, INC., priority 2019, dated 2025).

Key:
Assay in all cases: KINOMEscan (ScanMAX) kinase profiling
Format in all cases: binding
panel of 468 kinases [1] = molecular target: T1, panel of 468 kinases (Homo sapiens, UniProt P27361); settings: ERK1; 1 μM; read-out: % control
T1 construct: purchased KINOMEscan (ScanMAX) service

panel of 468 kinases [2] = molecular target: T2, panel of 468 kinases (Homo sapiens, UniProt P29376); settings: LTK; 1 μM; read-out: % control
T2 construct: purchased KINOMEscan (ScanMAX) service
T2 sequence (P29376 17-864): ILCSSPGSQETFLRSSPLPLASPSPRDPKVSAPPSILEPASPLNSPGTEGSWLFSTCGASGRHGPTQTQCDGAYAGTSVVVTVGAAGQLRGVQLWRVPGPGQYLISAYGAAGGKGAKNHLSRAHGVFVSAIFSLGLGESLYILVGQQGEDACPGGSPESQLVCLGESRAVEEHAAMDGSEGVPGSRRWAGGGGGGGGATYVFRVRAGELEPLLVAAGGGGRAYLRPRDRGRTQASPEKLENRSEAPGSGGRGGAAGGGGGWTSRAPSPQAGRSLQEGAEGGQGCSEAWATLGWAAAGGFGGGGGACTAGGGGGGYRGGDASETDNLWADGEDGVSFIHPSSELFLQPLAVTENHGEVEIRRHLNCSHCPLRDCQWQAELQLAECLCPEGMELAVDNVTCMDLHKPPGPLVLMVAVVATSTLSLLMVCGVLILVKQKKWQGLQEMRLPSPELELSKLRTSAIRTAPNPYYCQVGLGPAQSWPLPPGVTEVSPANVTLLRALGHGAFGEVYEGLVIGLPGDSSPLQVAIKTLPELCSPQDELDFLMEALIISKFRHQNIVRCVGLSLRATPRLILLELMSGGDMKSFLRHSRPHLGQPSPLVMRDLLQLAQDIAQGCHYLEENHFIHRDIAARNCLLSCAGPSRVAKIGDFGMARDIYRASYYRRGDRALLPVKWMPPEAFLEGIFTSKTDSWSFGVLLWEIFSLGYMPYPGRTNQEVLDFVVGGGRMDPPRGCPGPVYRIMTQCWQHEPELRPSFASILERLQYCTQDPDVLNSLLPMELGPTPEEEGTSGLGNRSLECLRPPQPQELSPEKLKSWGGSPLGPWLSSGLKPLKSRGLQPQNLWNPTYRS

panel of 468 kinases [3] = molecular target: T3, panel of 468 kinases (Homo sapiens, UniProt P54764); settings: EPHA4; 1 μM; read-out: % control
T3 construct: purchased KINOMEscan (ScanMAX) service

panel of 468 kinases [4] = molecular target: T4, panel of 468 kinases (Homo sapiens, UniProt Q13131); settings: AMPK-alpha1; 1 μM; read-out: % control
T4 construct: purchased KINOMEscan (ScanMAX) service
T4 sequence (Q13131 whole entry): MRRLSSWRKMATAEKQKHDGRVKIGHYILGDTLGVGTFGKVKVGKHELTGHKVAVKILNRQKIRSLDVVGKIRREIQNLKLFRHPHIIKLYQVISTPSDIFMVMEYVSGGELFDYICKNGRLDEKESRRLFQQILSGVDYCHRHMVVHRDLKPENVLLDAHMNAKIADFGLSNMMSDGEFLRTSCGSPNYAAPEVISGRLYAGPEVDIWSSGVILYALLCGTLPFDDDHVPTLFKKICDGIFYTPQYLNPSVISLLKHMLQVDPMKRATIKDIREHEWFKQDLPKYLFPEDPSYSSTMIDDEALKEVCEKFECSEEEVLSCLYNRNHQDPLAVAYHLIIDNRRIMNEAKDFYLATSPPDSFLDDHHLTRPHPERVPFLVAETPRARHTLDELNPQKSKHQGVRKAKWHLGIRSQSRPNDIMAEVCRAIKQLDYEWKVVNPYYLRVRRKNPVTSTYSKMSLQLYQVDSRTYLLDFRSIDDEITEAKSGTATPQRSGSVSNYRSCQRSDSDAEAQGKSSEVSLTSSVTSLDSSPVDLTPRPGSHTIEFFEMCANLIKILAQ

panel of 468 kinases [5] = molecular target: T5, panel of 468 kinases (Homo sapiens, UniProt Q13705); settings: ACVR2B; 1 μM; read-out: % control
T5 construct: purchased KINOMEscan (ScanMAX) service

panel of 468 kinases [6] = molecular target: T6, panel of 468 kinases (Homo sapiens, UniProt Q16816); settings: PHKG1; 1 μM; read-out: % control
T6 construct: purchased KINOMEscan (ScanMAX) service
T6 sequence (Q16816 whole entry): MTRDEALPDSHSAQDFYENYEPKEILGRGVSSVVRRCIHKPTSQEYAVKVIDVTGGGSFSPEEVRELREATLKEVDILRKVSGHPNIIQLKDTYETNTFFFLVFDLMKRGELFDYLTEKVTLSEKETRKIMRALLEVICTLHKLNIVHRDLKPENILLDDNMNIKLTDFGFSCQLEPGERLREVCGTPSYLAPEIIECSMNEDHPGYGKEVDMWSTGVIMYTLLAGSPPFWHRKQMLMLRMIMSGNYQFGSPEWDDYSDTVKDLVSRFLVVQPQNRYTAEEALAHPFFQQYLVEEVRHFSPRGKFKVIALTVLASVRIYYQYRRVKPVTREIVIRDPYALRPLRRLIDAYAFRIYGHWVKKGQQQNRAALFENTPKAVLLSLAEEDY

panel of 468 kinases [7] = molecular target: T7, panel of 468 kinases (Homo sapiens, UniProt Q52WX2); settings: SBK1; 1 μM; read-out: % control
T7 construct: purchased KINOMEscan (ScanMAX) service
T7 sequence (Q52WX2 whole entry): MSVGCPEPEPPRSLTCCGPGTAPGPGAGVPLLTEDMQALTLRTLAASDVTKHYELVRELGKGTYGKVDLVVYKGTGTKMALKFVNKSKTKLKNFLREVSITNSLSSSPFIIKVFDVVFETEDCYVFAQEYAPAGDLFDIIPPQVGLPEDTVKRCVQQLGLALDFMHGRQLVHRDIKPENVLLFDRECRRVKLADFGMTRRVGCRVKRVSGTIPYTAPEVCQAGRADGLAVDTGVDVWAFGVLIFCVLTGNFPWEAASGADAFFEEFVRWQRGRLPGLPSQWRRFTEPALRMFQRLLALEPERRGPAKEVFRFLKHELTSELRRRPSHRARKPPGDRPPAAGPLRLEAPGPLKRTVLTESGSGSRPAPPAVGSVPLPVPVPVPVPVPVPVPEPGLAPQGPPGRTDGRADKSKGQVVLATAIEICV

panel of 468 kinases [8] = molecular target: T8, panel of 468 kinases (Homo sapiens, UniProt Q96PY6); settings: NEK1; 1 μM; read-out: % control
T8 construct: purchased KINOMEscan (ScanMAX) service
T8 sequence (Q96PY6 1-1258): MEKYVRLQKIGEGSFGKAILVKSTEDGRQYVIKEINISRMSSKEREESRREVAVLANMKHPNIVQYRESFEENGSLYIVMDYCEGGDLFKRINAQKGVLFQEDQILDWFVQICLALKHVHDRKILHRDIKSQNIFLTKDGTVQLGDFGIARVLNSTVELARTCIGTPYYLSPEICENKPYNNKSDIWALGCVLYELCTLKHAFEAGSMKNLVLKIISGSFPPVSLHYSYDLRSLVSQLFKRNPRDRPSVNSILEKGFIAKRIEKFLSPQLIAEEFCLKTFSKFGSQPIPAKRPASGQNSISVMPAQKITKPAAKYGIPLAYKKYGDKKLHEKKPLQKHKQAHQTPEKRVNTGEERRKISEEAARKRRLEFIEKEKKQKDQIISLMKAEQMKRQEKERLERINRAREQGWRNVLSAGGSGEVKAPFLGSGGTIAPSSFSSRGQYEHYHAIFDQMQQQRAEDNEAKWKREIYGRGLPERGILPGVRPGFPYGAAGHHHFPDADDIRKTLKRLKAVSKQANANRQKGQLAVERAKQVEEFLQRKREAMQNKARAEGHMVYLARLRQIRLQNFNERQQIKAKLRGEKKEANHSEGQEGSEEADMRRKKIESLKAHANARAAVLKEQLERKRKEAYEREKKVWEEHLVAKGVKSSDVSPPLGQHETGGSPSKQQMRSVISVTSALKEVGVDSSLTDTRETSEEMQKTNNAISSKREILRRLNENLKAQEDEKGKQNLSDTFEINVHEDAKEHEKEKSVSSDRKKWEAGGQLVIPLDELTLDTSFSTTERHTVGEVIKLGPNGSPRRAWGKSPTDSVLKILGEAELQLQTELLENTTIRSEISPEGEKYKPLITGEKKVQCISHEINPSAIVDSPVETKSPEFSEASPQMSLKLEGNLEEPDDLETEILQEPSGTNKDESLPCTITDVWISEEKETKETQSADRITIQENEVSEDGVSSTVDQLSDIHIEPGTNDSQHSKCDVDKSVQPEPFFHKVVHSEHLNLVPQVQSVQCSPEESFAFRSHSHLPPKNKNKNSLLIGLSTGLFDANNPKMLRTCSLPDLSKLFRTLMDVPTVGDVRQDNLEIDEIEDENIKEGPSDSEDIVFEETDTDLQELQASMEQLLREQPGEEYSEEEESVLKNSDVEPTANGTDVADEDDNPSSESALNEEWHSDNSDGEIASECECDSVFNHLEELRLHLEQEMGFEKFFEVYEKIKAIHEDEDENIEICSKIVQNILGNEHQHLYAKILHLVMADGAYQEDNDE

panel of 468 kinases [9] = molecular target: T9, panel of 468 kinases (Homo sapiens, UniProt Q96SB4); settings: SRPK1; 1 μM; read-out: % control
T9 construct: purchased KINOMEscan (ScanMAX) service
T9 sequence (Q96SB4 whole entry): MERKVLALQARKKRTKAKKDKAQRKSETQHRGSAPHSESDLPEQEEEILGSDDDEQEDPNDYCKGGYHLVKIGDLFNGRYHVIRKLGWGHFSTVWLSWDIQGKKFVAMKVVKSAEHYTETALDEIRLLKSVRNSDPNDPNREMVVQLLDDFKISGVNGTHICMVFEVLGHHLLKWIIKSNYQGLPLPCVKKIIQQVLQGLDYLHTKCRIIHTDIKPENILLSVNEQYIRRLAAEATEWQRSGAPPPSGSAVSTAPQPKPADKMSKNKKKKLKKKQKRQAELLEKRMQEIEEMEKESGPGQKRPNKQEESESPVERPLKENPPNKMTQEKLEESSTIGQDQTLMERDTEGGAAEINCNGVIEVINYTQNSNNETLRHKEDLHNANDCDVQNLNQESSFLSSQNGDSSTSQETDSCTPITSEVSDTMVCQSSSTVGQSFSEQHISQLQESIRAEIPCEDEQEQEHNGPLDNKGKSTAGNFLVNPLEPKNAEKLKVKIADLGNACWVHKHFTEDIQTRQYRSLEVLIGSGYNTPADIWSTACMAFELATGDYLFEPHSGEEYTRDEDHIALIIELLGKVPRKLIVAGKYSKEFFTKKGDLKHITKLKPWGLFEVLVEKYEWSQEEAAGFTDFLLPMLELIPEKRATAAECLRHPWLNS

panel of 468 kinases [10] = molecular target: T10, panel of 468 kinases (Homo sapiens, UniProt Q9NY57); settings: YANK2; 1 μM; read-out: % control
T10 construct: purchased KINOMEscan (ScanMAX) service
T10 sequence (Q9NY57 whole entry): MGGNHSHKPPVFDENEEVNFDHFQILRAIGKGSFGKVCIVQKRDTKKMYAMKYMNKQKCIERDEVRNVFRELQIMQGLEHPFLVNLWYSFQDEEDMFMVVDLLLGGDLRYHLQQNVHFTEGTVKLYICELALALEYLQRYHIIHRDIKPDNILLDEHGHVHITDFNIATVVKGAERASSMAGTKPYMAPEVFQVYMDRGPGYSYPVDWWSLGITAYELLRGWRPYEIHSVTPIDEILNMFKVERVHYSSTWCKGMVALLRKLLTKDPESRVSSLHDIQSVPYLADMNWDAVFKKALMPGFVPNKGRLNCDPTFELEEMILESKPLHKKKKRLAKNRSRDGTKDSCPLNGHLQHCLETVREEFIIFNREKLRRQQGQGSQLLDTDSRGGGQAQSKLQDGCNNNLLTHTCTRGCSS

panel of 468 kinases [11] = molecular target: T11, panel of 468 kinases (Homo sapiens, UniProt Q9UBF8); settings: PIK4CB; 1 μM; read-out: % control
T11 construct: purchased KINOMEscan (ScanMAX) service
T11 sequence (Q9UBF8 whole entry): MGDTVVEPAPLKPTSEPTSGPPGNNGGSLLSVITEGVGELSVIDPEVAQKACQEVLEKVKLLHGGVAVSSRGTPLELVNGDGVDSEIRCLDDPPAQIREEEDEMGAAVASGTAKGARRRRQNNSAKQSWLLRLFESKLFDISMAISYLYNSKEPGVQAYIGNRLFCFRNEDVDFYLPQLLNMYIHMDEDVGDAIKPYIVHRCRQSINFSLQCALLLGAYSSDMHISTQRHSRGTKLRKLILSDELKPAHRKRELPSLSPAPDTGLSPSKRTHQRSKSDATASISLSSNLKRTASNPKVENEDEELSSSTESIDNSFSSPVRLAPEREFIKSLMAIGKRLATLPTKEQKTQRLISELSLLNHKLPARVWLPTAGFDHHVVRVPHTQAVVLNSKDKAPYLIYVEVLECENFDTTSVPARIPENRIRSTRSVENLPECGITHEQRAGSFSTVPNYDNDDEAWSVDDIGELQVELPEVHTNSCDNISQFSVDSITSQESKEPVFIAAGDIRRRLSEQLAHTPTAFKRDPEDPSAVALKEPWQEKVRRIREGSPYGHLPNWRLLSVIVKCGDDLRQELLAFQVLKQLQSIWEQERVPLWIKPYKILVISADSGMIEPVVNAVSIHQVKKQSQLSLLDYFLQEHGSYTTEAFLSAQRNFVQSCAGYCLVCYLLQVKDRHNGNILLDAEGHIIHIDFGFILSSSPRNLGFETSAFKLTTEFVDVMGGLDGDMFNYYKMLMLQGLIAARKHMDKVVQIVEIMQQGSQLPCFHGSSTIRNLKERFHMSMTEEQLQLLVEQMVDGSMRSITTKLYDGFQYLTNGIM

panel of 468 kinases [12] = molecular target: T12, panel of 468 kinases (Homo sapiens, UniProt Q9Y463); settings: DYRK1B; 1 μM; read-out: % control
T12 construct: purchased KINOMEscan (ScanMAX) service
T12 sequence (Q9Y463 whole entry): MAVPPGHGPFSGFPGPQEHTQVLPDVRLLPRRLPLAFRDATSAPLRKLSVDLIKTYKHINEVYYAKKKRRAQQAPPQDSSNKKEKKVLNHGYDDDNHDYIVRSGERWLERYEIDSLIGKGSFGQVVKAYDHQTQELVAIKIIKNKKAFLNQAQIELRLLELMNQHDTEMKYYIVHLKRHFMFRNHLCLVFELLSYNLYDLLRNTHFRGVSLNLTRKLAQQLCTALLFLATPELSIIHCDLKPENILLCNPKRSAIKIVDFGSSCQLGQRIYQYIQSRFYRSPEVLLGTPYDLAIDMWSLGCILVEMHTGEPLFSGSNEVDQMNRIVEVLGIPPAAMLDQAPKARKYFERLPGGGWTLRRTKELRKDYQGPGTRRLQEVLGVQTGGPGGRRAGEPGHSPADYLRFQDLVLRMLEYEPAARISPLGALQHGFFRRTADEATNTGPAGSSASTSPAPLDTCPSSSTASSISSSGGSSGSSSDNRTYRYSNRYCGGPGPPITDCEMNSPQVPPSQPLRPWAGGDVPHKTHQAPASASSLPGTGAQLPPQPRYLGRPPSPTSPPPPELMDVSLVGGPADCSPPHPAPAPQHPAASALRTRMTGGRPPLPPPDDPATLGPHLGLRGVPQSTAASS

CNc1nc(Nc2ccc(S(=O)(=O)N3CCC(N4CCOCC4)CC3)cc2OC)nc2[nH]cc(Cl)c12 [Compound 12, 5-chloro-N2-(2-methoxy-4-((4-morpholinopiperidin-1-yl)sulfonyl)phenyl)-N4-methyl-7H-pyrrolo[2,3-d]pyrimidine-2,4-diamine]
remaining binding at 1 µM (panel of 468 kinases [1]): 100% | remaining binding at 1 µM (panel of 468 kinases [2]): 22% | remaining binding at 1 µM (panel of 468 kinases [3]): 86% | remaining binding at 1 µM (panel of 468 kinases [4]): 100% | remaining binding at 1 µM (panel of 468 kinases [5]): 79% | remaining binding at 1 µM (panel of 468 kinases [6]): 25% | remaining binding at 1 µM (panel of 468 kinases [7]): 77% | remaining binding at 1 µM (panel of 468 kinases [8]): 100% | remaining binding at 1 µM (panel of 468 kinases [9]): 96% | remaining binding at 1 µM (panel of 468 kinases [10]): 96% | remaining binding at 1 µM (panel of 468 kinases [11]): 100% | remaining binding at 1 µM (panel of 468 kinases [12]): 6.1%

CNc1nc(Nc2ccc(C(=O)N3CCC(N4CCOCC4)CC3)c3c2OCO3)nc2[nH]cc(Cl)c12 [Compound 75, (7-((5-chloro-4-(methylamino)-7H-pyrrolo[2,3-d]pyrimidin-2-yl)amino)benzo[d][1,3]dioxol-4-yl)(4-morpholinopiperidin-1-yl)methanone]
remaining binding at 1 µM (panel of 468 kinases [1]): 100% | remaining binding at 1 µM (panel of 468 kinases [2]): 19% | remaining binding at 1 µM (panel of 468 kinases [3]): 92% | remaining binding at 1 µM (panel of 468 kinases [4]): 89% | remaining binding at 1 µM (panel of 468 kinases [5]): 95% | remaining binding at 1 µM (panel of 468 kinases [6]): 14% | remaining binding at 1 µM (panel of 468 kinases [7]): 64% | remaining binding at 1 µM (panel of 468 kinases [8]): 88% | remaining binding at 1 µM (panel of 468 kinases [9]): 53% | remaining binding at 1 µM (panel of 468 kinases [10]): 100% | remaining binding at 1 µM (panel of 468 kinases [11]): 100% | remaining binding at 1 µM (panel of 468 kinases [12]): 0%

CNc1nc(Nc2ccc(P3(=O)CCN(C4CCOCC4)CC3)cc2OC)nc2[nH]cc(Cl)c12 [Compound 77, 4-(4-((5-chloro-4-(methylamino)-7H-pyrrolo[2,3-d]pyrimidin-2-yl)amino)-3-methoxyphenyl)-1-(tetrahydro-2H-pyran-4-yl)-1,4-azaphosphinane 4-oxide]
remaining binding at 1 µM (panel of 468 kinases [1]): 100% | remaining binding at 1 µM (panel of 468 kinases [2]): 21% | remaining binding at 1 µM (panel of 468 kinases [3]): 79% | remaining binding at 1 µM (panel of 468 kinases [4]): 93% | remaining binding at 1 µM (panel of 468 kinases [5]): 73% | remaining binding at 1 µM (panel of 468 kinases [6]): 8.4% | remaining binding at 1 µM (panel of 468 kinases [7]): 68% | remaining binding at 1 µM (panel of 468 kinases [8]): 98% | remaining binding at 1 µM (panel of 468 kinases [9]): 96% | remaining binding at 1 µM (panel of 468 kinases [10]): 100% | remaining binding at 1 µM (panel of 468 kinases [11]): 100% | remaining binding at 1 µM (panel of 468 kinases [12]): 13%
